According to patent US5094944A, “Flourescent aquatic bioassay and procedure” (priority 1990, dated 1992):
In brackets after ≈: the same amount, converted by molar mass.

Tests used:
Daphnia magna [1] = assay: whole plant or invertebrate; assay type: in vivo; settings: for EC50: Daphnia magna, read-out: Mean EC50
Description: Determination of the EC50 Value in Test Tubes
Using Daphnia magna as a test species a series of test concentrations of the standard reference toxicant CuSO4 was established in triplicate. Each replicate consisted of 10 ml of test media in a 15 ml glass test tube. Five organisms were placed in each tube. The tubes were then maintained for a period of one hour at ambient room environmental conditions. At the end of one hour 0.4 mg of the substrate 4-Methylumbelliferyl b-D-galactoside (MUF) was added. Fifteen minutes after the addition of the MUF the test tubes were taken into a dark room. […] A record was made of the number of strongly fluorescing Daphnia magna bodies. […] These organisms were then compared to each of the other triplicate concentrations.
The data was then analyzed statistically by conventional methods (Methods for Measuring the Acute Toxicity of Effluents to Freshwater and Marine Organisms (Third Edition) EPA/600/4-85/013).
11 standard reference toxicants were then analyzed by the above method. […]

Daphnia magna [2] = assay: Daphnia magna fluorescence bioassay in a multiwell plate (Example 1); assay type: in vivo; design: key to fluorescence of Daphnia magna: fluorescing; nonfluorescing; settings: for fluorescence of Daphnia magna / survival (all alive): replicates #1, #2, #3
Source text: Determination of an EC50 Value in a Multiwell Plate
The objective of this example was to determine the EC50 value and its confidence limits for the test substance copper sulfate ([…]) to the common water flea, Daphnia magna.
Using the invertebrate Daphnia magna as a test species a series of test concentratins are established with the standard reference toxicant copper sulfate, CuSo4, in triplicate at the following concentrations:
One ml of each of the above CuSO4 solutions was pippetted into a mutiwell plate (3 replications per concentration, 1 ml per replicate). To each of 18 wells in the plate 5 Daphnia magna were added and exposed to the test concentrations for a period of five minutes. Then to each of the 18 wells, with the exception of 0-B 1, 2 and 3, 1.0 mg of 4-Methylumbelliferyl b-D-Galactoside (MUF) was dropped onto the surface of each well. The powder settled to the bottom of each well. After 1 minute of exposure, each sample was read. An ultra-violet light (black light) was held over the multiwell in a dark room. The fluorescent intensity of Controls 0-A ppm (maximum intensity) and Controls 0-B ppm (minimum intensity) were utilized as baselines to compare the effects of test concentrations 0.01 through 10.0 ppm CuSO4.

[3] = Table 2, three tests at different times per toxicant, 1 hour exposure, 15 minutes after MUF

`Oc1ccccc1` [Phenol] was tested, and the EC50 (Daphnia magna [1]; 1 h) was 37.1 µg/mL (≈ 394 µM).

In the case of `Oc1c(Cl)c(Cl)c(Cl)c(Cl)c1Cl` [NaPCP], the EC50 (Daphnia magna [1]; [3]) is reported as 1 µg/mL (≈ 3.75 µM).

In the case of mercury [Hg], the “Mean EC50” value (Daphnia magna [1]; [3]) is reported as 0.02 ppm.

`[Zn]` [Zn, zinc] was tested, and the “Mean EC50” value (Daphnia magna [1]; [3]) was 4.3 ppm.

`c1ccccc1` [Benzene] gave an EC50 (Daphnia magna [1]; 1 h) of 6.5 µg/mL (≈ 83.2 µM).

`[Cr]` [Cr, chromium] was tested, and the “Mean EC50” value (Daphnia magna [1]; [3]) was 3.7 ppm.

In the case of `[Cu]` [Cu, copper], the “EC50 for Cu with Daphnia magna” value (Daphnia magna [1]; test tubes, 1 hour exposure, 15 minutes after MUF) is reported as 0.23 ppm.

With `CCCCCCCCCCCCOS(=O)(=O)O` [NaLS] the EC50 (Daphnia magna [1]; [3]) was 74.1 µg/mL (≈ 278 µM).

In the case of `[Cd]` [Cd, cadmium], the “Mean EC50” value (Daphnia magna [1]; [3]) is reported as 0.41 ppm.

`C=O` [Formaldehyde] gave an EC50 (Daphnia magna [1]; 1 h) of 39.2 µg/mL (≈ 1310 µM).

`Cc1ccccc1` [Toluene] was tested, and the EC50 (Daphnia magna [1]; 1 h) was 6.3 µg/mL (≈ 68.4 µM).

For copper sulfate [CuSO4], the “fluorescence of Daphnia magna” value (Daphnia magna [2]; 0.01 ppm) was “f”, the “survival (all alive)” value (Daphnia magna [2]; 0.01 ppm) was “all alive” and the “fluorescence of Daphnia magna” value (Daphnia magna [2]; 0.1 ppm) was “f”. The “survival (all alive)” value (Daphnia magna [2]; 0.1 ppm) was “all alive”, the “fluorescence of Daphnia magna” value (Daphnia magna [2]; 1.0 ppm) was “f” and the “survival (all alive)” value (Daphnia magna [2]; 1.0 ppm) was “all alive”. For the same compound, the “sublethal adverse affect detected” value (Daphnia magna [2]; 10.0 ppm, in less than 10 minutes) was “sublethal adverse affect”, the “fluorescence of Daphnia magna” value (Daphnia magna [2]; 10.0 ppm) was “nf” and the “survival (all alive)” value (Daphnia magna [2]; 10.0 ppm) was “all alive”. For the same compound, the EC50 (Daphnia magna [2]; multiwell plate, 5 minutes exposure, MUF substrate, read after 1 minute) was 3.2 ppm.
